In patent US20130253027A1, “DOSAGES OF ARYLSULFONAMIDE DERIVATIVES” (FOVEA PHARMACEUTICALS, priority 2010, published 2013):
Several values for one entry are separate records, joined by “and”; a condition that tells them apart may be missing. Identical values can stand only once.

How the values were obtained:
[1] = system: leukocyte adhesion to the retinal vasculature; experiment: Leukocyte adhesion to the retinal vasculature of streptozotocin-diabetic Wistar rats; format: in vivo, rat; settings: phosphate salt, 1% eye drop twice-a-day for 7 days; P<0.05
[2] = system: streptozotocin-diabetic Brown-Norway rats; experiment: Retinal vascular leakage (Evans Blue dye) after eye drops in streptozotocin-diabetic Brown-Norway rats; format: in vivo, rat
Text: Administration of streptozotocin to rodents produces a massive destruction of pancreatic β-cells, and thus, triggers marked elevation of glycemia and development of a diabetic state which, in part, mimics early stages of type 1 diabetes. In this regard, streptozotocin-treated rats develop an inflammatory retinopathy featured by rupture of the blood-retinal barrier, increase of inflammatory mediators, cytokines and growth factors (VEGF, basic fibroblast growth factor), microglial cell activation and leukostasis.
Male Brown-Norway or Wistar rats were made diabetic by […] of 65 mg/kg intraperitoneal streptozotocin. Rats with a glycemia<350 mg/dl were discarded from the study. […] On day 15, retinal vascular leakage was determined by measurement of retinal content of Evans Blue dye.
Recombinant tissue kallikrein binding protein (rKBP) was used as a reference drug and was given intravitreally 48 hours before vascular leakage measurement. Values are means ±standard error mean of 12 eyes/group (6 rats). *** means that P<0.001 in a Student's t-test.
The route by which the phosphate salt of compound n° 49 reaches the retina following topical instillation was investigated to determine whether it is mainly by systemic circulation or by the trans- and/or peri-ocular pathway.

[3] = system: mRNA of cytokines, vasoactive mediators and growth factors in retina; experiment: Expression of mRNA of cytokines, vasoactive mediators and growth factors in retina of diabetic Wistar rats; format: in vivo, rat; settings: 1% eye drops for 7 days, phosphate salt
Text: Expression of mRNA of B1R, B2R, i-NOS, e-NOS, COX-2, ICAM-1, VEGF-R2, VEGF-a, IL-1β and HIF-1α was increased in diabetic rat retina compared to control by 7.5-fold (P<0.05), 5.5, 15- (P<0.01), 6.5- , 8- (P<0.05), 8- , 5- (P<0.05), 12-, 6.5- (P<0.01) and 7-fold (P<0.05), respectively. Expression of TNF-α mRNA remained unchanged.

[4] = Ocular distribution study in albino and pigmented rabbits (14C-compound, single ocular administration); format: in vivo, rabbit
Text: Further, an ocular distribution study in albino and pigmented rabbits has been performed.

[5] = system: mRNA of cytokines, vasoactive mediators and growth factors in retina; experiment: Expression of mRNA of cytokines, vasoactive mediators and growth factors in retina of diabetic Wistar rats; format: in vivo, rat; settings: 1% eye drops for 7 days, phosphate salt; remark: listed apart in the source
[6] = system: STZ diabetic Brown-Norway rats; settings: intravitreal route, positive reference drug; cited from earlier work
[7] = single ocular 30 μl of 2% (base equivalent) 14C formulation

| Molecule | leukostasis (number of leukocytes in retinal vessels) [1] | reduction of retinal edema, maximum ([2]; 1% eye drops, two separate preliminary studies (data not shown)) | reduction of retinal vascular permeability, treated eye ([2]; 3% phosphate salt in a single eye for 7 days) [%] | reduction of retinal oedema, maximum ([2]; phosphate salt, eye drop (10 μl) 0.1-3% twice daily for 7 days, dose-dependent) [%] | activity of phosphate salt form compared to fumarate salt ([2]; test not specified) | mRNA expression of B1R in retina [3] | mRNA expression of B2R in retina [3] | mRNA expression of COX-2 in retina [3] | mRNA expression of HIF-1α in retina [3] | mRNA expression of ICAM-1 in retina [3] | mRNA expression of VEGF-A in retina (first mention in list) [3] | mRNA expression of e-NOS in retina [3] | mRNA expression of i-NOS in retina [3] | reduction of expression of VEGF-A mRNA in retina [3] [%] | Cmax in plasma ([4]; albino and pigmented rabbits (similar profiles), single ocular 30 μl of 2%) [ng/mL] | AUC 0-48 in aqueous, retina, choroids, whole blood and plasma, pigmented rabbit higher than albino [4, 7] | Cmax, pigmented rabbit lower than albino [4, 7] | t½ in vitreous, retina and choroids, pigmented rabbit higher than albino [4, 7] | mRNA expression of IL-1α in retina [5] | reduction of retinal vascular leakage [6] |
| --- | --- | --- | --- | --- | --- | --- | --- | --- | --- | --- | --- | --- | --- | --- | --- | --- | --- | --- | --- | --- |
| COc1cc(C)c(S(=O)(=O)N(C)CCOCC(=O)N(C)Cc2ccc(C3=NCCN3)cc2)c(C)c1 [compound n° 49] | significantly blunted | 58% and 63% | 37 | 55 | equivalent activity | down-regulated to control level | down-regulated to control level | down-regulated to control level | down-regulated to control level | down-regulated to control level | down-regulated to control level | down-regulated to control level | down-regulated to control level | 50 | 88 | at least 2 fold | at least 2 fold | at least 2 fold | down-regulated to control level | – |
| rKBP: Recombinant tissue kallikrein binding protein, reference drug given intravitreally (protein, UniProt P29622 21-427, looked up) Kallistatin: QLHVEHDGESCSNSSHQQILETGEGSPSLKIAPANADFAFRFYYLIASETPGKNIFFSPLSISAAYAMLSLGACSHSRSQILEGLGFNLTELSESDVHRGFQHLLHTLNLPGHGLETRVGSALFLSHNLKFLAKFLNDTMAVYEAKLFHTNFYDTVGTIQLINDHVKKETRGKIVDLVSELKKDVLMVLVNYIYFKALWEKPFISSRTTPKDFYVDENTTVRVPMMLQDQEHHWYLHDRYLPCSVLRMDYKGDATVFFILPNQGKMREIEEVLTPEMLMRWNNLLRKRNFYKKLELHLPKFSISGSYVLDQILPRLGFTDLFSKWADLSGITKQQKLEASKSFHKATLDVDEAGTEAAAATSFAIKFFSAQTNRHILRFNRPFLVVIFSTSTQSVLFLGKVVDPTKP | – | – | – | – | – | – | – | – | – | – | – | – | – | – | – | – | – | – | – | approximately 50% |
